From paper PMC3914206

Experiments:
panel of 442 kinases [1] = biological target: T1, panel of 442 kinases (Homo sapiens, UniProt P37023); format: binding; details: Compound Concentration 10 µM
T1 construct: purchased KINOMEscan
Excerpt: (§1) We assessed the selectivity of members of this scaffold using the KINOMEscan methodology across a near comprehensive panel of 442 kinases [[18,27]].

panel of 442 kinases [2] = biological target: T2, panel of 442 kinases (Homo sapiens, UniProt P53779); format: binding; details: Compound Concentration 10 µM
T2 construct: purchased KINOMEscan
T2 sequence (P53779 whole entry): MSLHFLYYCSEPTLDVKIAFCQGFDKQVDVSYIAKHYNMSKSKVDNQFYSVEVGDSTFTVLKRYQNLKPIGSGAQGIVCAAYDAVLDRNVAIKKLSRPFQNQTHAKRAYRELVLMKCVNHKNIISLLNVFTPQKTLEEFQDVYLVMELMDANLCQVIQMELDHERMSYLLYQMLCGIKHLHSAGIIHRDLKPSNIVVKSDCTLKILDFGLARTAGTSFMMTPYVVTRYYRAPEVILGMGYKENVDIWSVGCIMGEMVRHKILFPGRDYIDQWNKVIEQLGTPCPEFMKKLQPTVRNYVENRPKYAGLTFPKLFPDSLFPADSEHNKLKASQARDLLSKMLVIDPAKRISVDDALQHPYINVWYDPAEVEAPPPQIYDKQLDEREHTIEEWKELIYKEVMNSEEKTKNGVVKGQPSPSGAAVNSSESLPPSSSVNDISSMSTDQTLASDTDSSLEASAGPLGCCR
Excerpt: as §1

T1 sequence (P37023 22-503): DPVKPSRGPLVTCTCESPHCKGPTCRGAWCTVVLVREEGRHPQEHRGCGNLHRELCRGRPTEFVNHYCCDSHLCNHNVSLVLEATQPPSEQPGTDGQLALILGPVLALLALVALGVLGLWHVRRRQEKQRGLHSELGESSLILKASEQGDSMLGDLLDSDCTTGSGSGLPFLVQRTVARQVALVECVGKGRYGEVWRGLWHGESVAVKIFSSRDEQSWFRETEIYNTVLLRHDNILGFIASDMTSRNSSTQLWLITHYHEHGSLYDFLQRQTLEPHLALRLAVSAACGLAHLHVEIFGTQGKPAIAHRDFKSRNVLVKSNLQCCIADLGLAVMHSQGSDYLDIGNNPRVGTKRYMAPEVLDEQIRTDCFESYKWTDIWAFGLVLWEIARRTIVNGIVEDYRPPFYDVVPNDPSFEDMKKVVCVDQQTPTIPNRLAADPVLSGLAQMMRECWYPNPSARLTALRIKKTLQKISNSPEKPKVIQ

COc1cc(C(=O)N2CCC(N3CCN(C)CC3)CC2)ccc1Nc1ncc2c(n1)N(C)c1ccccc1C(=O)N2C [15 (LRRK2-IN-1)]
KINOMEscan: ACVRL1 (panel of 442 kinases [1]): 100 | KINOMEscan: JNK3 (panel of 442 kinases [2]): 77

CCOc1cc(C(=O)N2CCC(N3CCN(C)CC3)CC2)ccc1Nc1ncc2c(n1)N(C1CCCC1)c1ccccc1C(=O)N2C [Compound 26]
KINOMEscan: ACVRL1 (panel of 442 kinases [1]): 100 | KINOMEscan: JNK3 (panel of 442 kinases [2]): 74

COc1cc(C(=O)N2CCC(N3CCN(C)CC3)CC2)ccc1Nc1ncc2c(n1)N1CCc3cccc(c31)C(=O)N2C [Compound 24]
KINOMEscan: JNK3 (panel of 442 kinases [2]): 43

COc1cc(C(=O)N2CCC(N3CCN(C)CC3)CC2)ccc1Nc1ncc2c(n1)N(C1CCCC1)c1ccccc1C(=O)N2C [Compound 25, 11-cyclopentyl-2-((2-methoxy-4-(4-(4-methylpiperazin-1-yl)piperidine-1-carbonyl)phenyl)amino)-5-methyl-5H-benzo[e]pyrimido[5,4-b][1,4]diazepin-6(11H)-one]
KINOMEscan: ACVRL1 (panel of 442 kinases [1]): 100 | KINOMEscan: JNK3 (panel of 442 kinases [2]): 48
